One block for each compound: values may come before it.
Columns and labels:
[1] = Solubility in aqueous media; format: physicochemical
[2] = tested on: metastatic renal cell carcinoma (mRCC); test: CABOSUN (ALLIANCE A031203) trial, cabozantinib vs sunitinib as initial targeted therapy
Method: Pts were randomized 1:1 to receive Cabo (60 mg QD) or Sun (50 mg QD, 4 weeks on/2 weeks off). Pts were stratified by the IMDC risk groups (intermediate vs. poor risk) and bone metastasis (yes, no). […] Secondary endpoints included OS, investigator-assessed overall response rate (ORR), and toxicity. The Kaplan-Meier product-limit estimator was used to estimate the OS between treatment arms.

[3] = tested on: advanced renal cell carcinoma; conditions: nivolumab study; cited from earlier work

Compound: COc1cc2nccc(Oc3ccc(NC(=O)C4(C(=O)Nc5ccc(F)cc5)CC4)cc3)c2cc1OC.O=C(O)C[C@H](O)C(=O)O [Cabozantinib (S)-malate salt, N-(4-(6,7-dimethoxyquinolin-4-yloxy)phenyl)-N′-(4-fluorophenyl)cyclopropane-1,1-dicarboxamide, (2S)-hydroxybutanedioate]
Solubility in aqueous media [1]: practically insoluble in aqueous media

Diarrhea, grade 3 or 4 ([2]; human, in vivo): I1% | Fatigue, grade 3 or 4 ([2]; human, in vivo): 15% | Hypertension, grade 3 or 4 ([2]; human, in vivo): 22% | Palmar-plantar erythrodysesthesia, grade 3 or 4 ([2]; human, in vivo): 4%
Compound: CCN(CC)CCNC(=O)c1c(C)[nH]c(/C=C2\C(=O)Nc3ccc(F)cc32)c1C [sunitinib, reference compound]
All-causality grade 3 or 4 adverse events ([2]; human, in vivo): 68% | Hematologic adverse events, grade 3 or 4 ([2]; human, in vivo): 22% | Median OS ([2]; in vivo): 21.8 months | ORR ([2]; in vivo): 18% | Median PFS ([2]; untreated mRCC, intermediate or poor risk): 5.6 months

Compound: nivolumab
Hazard ratio for death vs everolimus [3]: 0.73

Source: US11141413B2, “Method of treating renal cell carcinoma using N-(4-(6,7-dimethoxyquinolin-4-yloxy)phenyl)-N′-(4-fluorophenyl)cyclopropane-1,1-dicarboxamide, (2S)-hydroxybutanedioate” (Exelixis, Inc., priority 2016, dated 2021)
